Measured values from US10544150B2, “NK-3 receptor selective antagonist compounds, pharmaceutical composition and methods for use in NK-3 receptors mediated disorders” (Ogeda SA, priority 2010, dated 2020).
Values belong to the compound of their own block, whether it stands above or below them.

Molecular target: human NK-3 receptor (Homo sapiens (Human), UniProt P29371)
Test: 3H-SB222200 binding competition assay with human NK-3 receptor
Conditions: 3H-SB222200 displacement, CHO cell membranes expressing human NK3 receptor; read-out: Ki range
How it was run: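 Radioligand displacement: 5 nM tritiated SB222200 competed by varying compound concentrations on recombinant CHO membranes bearing human NK3, buffer pH 7.4 with HEPES, NaCl, CaCl2, MgCl2, BSA and saponin. Filter-bound radioactivity quantified; calculated Ki given as ranges from +++ (<500 nM) to # (>5 μM).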

Chain of human NK-3 receptor (P29371 whole entry): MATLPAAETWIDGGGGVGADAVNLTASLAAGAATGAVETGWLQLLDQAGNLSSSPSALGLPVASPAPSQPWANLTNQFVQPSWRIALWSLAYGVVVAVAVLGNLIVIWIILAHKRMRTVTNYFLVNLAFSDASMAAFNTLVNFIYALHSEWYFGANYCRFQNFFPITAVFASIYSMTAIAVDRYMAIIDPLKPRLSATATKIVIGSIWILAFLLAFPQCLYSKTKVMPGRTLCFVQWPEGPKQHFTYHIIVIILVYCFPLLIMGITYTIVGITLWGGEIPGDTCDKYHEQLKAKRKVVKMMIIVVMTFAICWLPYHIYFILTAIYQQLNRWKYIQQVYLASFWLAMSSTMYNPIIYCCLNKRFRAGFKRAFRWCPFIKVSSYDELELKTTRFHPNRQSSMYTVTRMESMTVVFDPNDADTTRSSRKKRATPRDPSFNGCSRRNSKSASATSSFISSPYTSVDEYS

Compound: CC1c2nnc(-c3nc(-c4ccccc4)no3)n2CCN1C(=O)c1ccc(-c2cccs2)cc1 (centres unmarked) [Compound 85, (8-methyl-3-(3-phenyl-1,2,4-oxadiazol-5-yl)-5,6-dihydro-[1,2,4]triazolo[4,3-a]pyrazin-7(8H)-yl)(4-(thiophen-2-yl)phenyl)methanone]
Ki: < 0.5 µM

Compound: CC1c2nnc(-c3csc(N4CCOCC4)n3)n2CCN1C(=O)c1ccc(F)cc1 (centres unmarked) [Compound 52, (4-fluorophenyl)(8-methyl-3-(2-morpholinothiazol-4-yl)-5,6-dihydro-[1,2,4]triazolo[4,3-a]pyrazin-7(8H)-yl)methanone]
Ki: < 0.5 µM

Compound: Cc1cccc(-c2nnc3n2CCN(C(=O)c2ccc(-c4cccs4)cc2)C3C)n1 (centres unmarked) [Compound 287, (8-methyl-3-(6-methylpyridin-2-yl)-5,6-dihydro-[1,2,4]triazolo[4,3-a]pyrazin-7(8H)-yl)(4-(thiophen-2-yl)phenyl)methanone]
Ki: < 0.5 µM

Compound: O=C(c1ccc(F)cc1)N1CCn2c(cnc2-c2csc(-c3ccc(F)cc3)n2)C1 [Compound 260, (4-fluorophenyl)(3-(2-(4-fluorophenyl)thiazol-4-yl)-5,6-dihydroimidazo[1,5-a]pyrazin-7(8H)-yl)methanone]
Ki: < 0.5 µM

Compound: CC1(C)CCN(c2nc(-c3nnc4n3CCN(C(=O)c3ccc(F)cc3)C4)cs2)CC1 [Compound 276, (3-(2-(4,4-dimethylpiperidin-1-yl)thiazol-4-yl)-5,6-dihydro-[1,2,4]triazolo[4,3-a]pyrazin-7(8H)-yl)(4-fluorophenyl)methanone]
Ki: > 5 µM

Compound: O=C(c1ccc(F)cc1)N1CCn2c(nnc2-c2csc(N3CCOCC3)n2)C1 [Compound 9, (4-fluorophenyl)(3-(2-morpholinothiazol-4-yl)-5,6-dihydro-[1,2,4]triazolo[4,3-a]pyrazin-7(8H)-yl)methanone]
Ki: < 0.5 µM

Compound: O=C(c1ccc(F)cc1)N1CCn2c(nnc2-c2csc(N3CCC(F)(F)CC3)n2)C1 [Compound 258, (3-(2-(4,4-difluoropiperidin-1-yl)thiazol-4-yl)-5,6-dihydro-[1,2,4]triazolo[4,3-a]pyrazin-7(8H)-yl)(4-fluorophenyl)methanone]
Ki: < 0.5 µM

Compound: O=C(c1ccc(F)cc1)N1CCn2c(nnc2-c2nc(-c3ccc(F)cc3)no2)C1 [Compound 175, (4-fluorophenyl)(3-(3-(4-fluorophenyl)-1,2,4-oxadiazol-5-yl)-5,6-dihydro-[1,2,4]triazolo[4,3-a]pyrazin-7(8H)-yl)methanone]
Ki: < 0.5 µM

Compound: Cc1nc(-c2ccccc2)sc1-c1nnc2n1CCN(C(=O)c1ccc(F)cc1)C2C (centres unmarked) [Compound 75, (4-fluorophenyl)(8-methyl-3-(4-methyl-2-phenylthiazol-5-yl)-5,6-dihydro-[1,2,4]triazolo[4,3-a]pyrazin-7(8H)-yl)methanone]
Ki: 0.5 to 1 µM

Compound: C[C@H]1c2nnc(-c3csc(N4CCOCC4)n3)n2CCN1C(=O)c1ccc(-c2cccs2)cc1 [Compound 227, (S)-(8-methyl-3-(2-morpholinothiazol-4-yl)-5,6-dihydro-[1,2,4]triazolo[4,3-a]pyrazin-7(8H)-yl)(4-(thiophen-2-yl)phenyl)methanone]
Ki: 0.5 to 1 µM

Compound: CN1CCN(c2nc(-c3nnc4n3CCN(C(=O)c3ccc(-c5cccs5)cc3)C4)cs2)CC1 [Compound 250, (3-(2-(4-methylpiperazin-1-yl)thiazol-4-yl)-5,6-dihydro-[1,2,4]triazolo[4,3-a]pyrazin-7(8H)-yl)(4-(thiophen-2-yl)phenyl)methanone]
Ki: 0.5 to 1 µM

Compound: COCCC1CN(c2nc(-c3nnc4n3CCN(C(=O)c3ccc(-c5cccs5)cc3)C4)cs2)CCO1 (centres unmarked) [Compound 257, (3-(2-(2-(2-methoxyethyl)morpholino)thiazol-4-yl)-5,6-dihydro-[1,2,4]triazolo[4,3-a]pyrazin-7(8H)-yl)(4-(thiophen-2-yl)phenyl)methanone]
Ki: < 0.5 µM

Compound: C[C@@H]1c2nnc(-c3ccccn3)n2CCN1C(=O)c1ccc(F)cc1 [Compound 44, (R)-(4-fluorophenyl)(8-methyl-3-(pyridin-2-yl)-5,6-dihydro-[1,2,4]triazolo[4,3-a]pyrazin-7(8H)-yl)methanone]
Ki: 1 to 5 µM

Compound: CC1c2nnc(-c3csc(-c4ccc(F)cc4)n3)n2CCN1C(=O)c1cc(F)c(F)c(F)c1 (centres unmarked) [Compound 113, (3-(2-(4-fluorophenyl)thiazol-4-yl)-8-methyl-5,6-dihydro-[1,2,4]triazolo[4,3-a]pyrazin-7(8H)-yl)(3,4,5-trifluorophenyl)methanone]
Ki: < 0.5 µM

Compound: CC1(C)c2nnc(-c3csc(-c4ccccc4)n3)n2CCN1C(=O)c1ccc(F)cc1 [Compound 60, (8,8-dimethyl-3-(2-phenylthiazol-4-yl)-5,6-dihydro-[1,2,4]triazolo[4,3-a]pyrazin-7(8H)-yl)(4-fluorophenyl)methanone]
Ki: < 0.5 µM

Compound: C[C@@H]1c2nnc(-c3csc(-c4ccccc4)n3)n2CCN1C(=O)c1ccc(F)cc1 [Compound 45, (R)-(4-fluorophenyl)(8-methyl-3-(2-phenylthiazol-4-yl)-5,6-dihydro-[1,2,4]triazolo[4,3-a]pyrazin-7(8H)-yl)methanone]
Ki: < 0.5 µM

Second part, the compound after the results:

Ki: < 0.5 µM
Compound: O=C(c1ccc(-c2cccs2)cc1)N1CCn2c(nnc2-c2csc(-c3ccc4ccccc4n3)n2)C1 [Compound 219, (3-(2-(quinolin-2-yl)thiazol-4-yl)-5,6-dihydro-[1,2,4]triazolo[4,3-a]pyrazin-7(8H)-yl)(4-(thiophen-2-yl)phenyl)methanone]

Ki: < 0.5 µM
Compound: CC(C)(C)OC(=O)NCCOc1ccccc1-c1nc(-c2nnc3n2CCN(C(=O)c2ccc(-c4cccs4)cc2)C3)cs1 [Compound 280, tert-butyl(2-(2-(4-(7-(4-(thiophen-2-yl)benzoyl)-5,6,7,8-tetrahydro-[1,2,4]triazolo[4,3-a]pyrazin-3-yl)thiazol-2-yl)phenoxy)ethyl)carbamate]

Ki: < 0.5 µM
Compound: O=C(c1ccc(-c2ccccc2)cc1)N1CCn2c(nnc2-c2csc(-c3ccccc3)n2)C1 [Compound 26, [1,1′-biphenyl]-4-yl(3-(2-phenylthiazol-4-yl)-5,6-dihydro-[1,2,4]triazolo[4,3-a]pyrazin-7(8H)-yl)methanone]

Ki: < 0.5 µM
Compound: O=C(c1ccc(F)cc1)N1CCn2c(nnc2-c2nc(-c3ccccc3)ns2)C1 [Compound 212, (4-fluorophenyl)(3-(3-phenyl-1,2,4-thiadiazol-5-yl)-5,6-dihydro-[1,2,4]triazolo[4,3-a]pyrazin-7(8H)-yl)methanone]

Ki: 1 to 5 µM
Compound: O=C(c1ccc(F)cc1)N1CCn2c(nnc2-c2cc3ccccc3cn2)C1 [Compound 15, (4-fluorophenyl)(3-(isoquinolin-3-yl)-5,6-dihydro-[1,2,4]triazolo[4,3-a]pyrazin-7(8H)-yl)methanone]

Ki: < 0.5 µM
Compound: CC1c2nnc(-c3csc(-c4ccc(F)cc4F)n3)n2CCN1C(=O)c1ccc(-c2ccccc2)cc1 (centres unmarked) [Compound 79, [1,1′-biphenyl]-4-yl(3-(2-(2,4-difluorophenyl)thiazol-4-yl)-8-methyl-5,6-dihydro-[1,2,4]triazolo[4,3-a]pyrazin-7(8H)-yl)methanone]

Ki: < 0.5 µM
Compound: O=C(c1ccc(-c2cccs2)cc1)N1CCn2c(nnc2-c2ccccn2)C1 [Compound 21, (3-(pyridin-2-yl)-5,6-dihydro-[1,2,4]triazolo[4,3-a]pyrazin-7(8H)-yl)(4-(thiophen-2-yl)phenyl)methanone]

Ki: < 0.5 µM
Compound: O=C(c1ccc(-c2ccc(F)cc2)cc1)N1CCn2c(nnc2-c2csc(-c3cccs3)n2)C1 [Compound 196, (4′-fluoro-[1,1′-biphenyl]-4-yl)(3-(2-(thiophen-2-yl)thiazol-4-yl)-5,6-dihydro-[1,2,4]triazolo[4,3-a]pyrazin-7(8H)-yl)methanone]

Ki: < 0.5 µM
Compound: O=C(c1ccc(-c2ccccc2)cc1)N1CCn2c(nnc2-c2nc(-c3ccccc3)no2)C1 [Compound 217, [1,1′-biphenyl]-4-yl(3-(3-phenyl-1,2,4-oxadiazol-5-yl)-5,6-dihydro-[1,2,4]triazolo[4,3-a]pyrazin-7(8H)-yl)methanone]

Ki: 0.5 to 1 µM
Compound: O=C(c1ccc(F)cc1)N1CCn2c(nnc2-c2cc(-c3ccccc3)n[nH]2)C1 [Compound 269, (4-fluorophenyl)(3-(3-phenyl-1H-pyrazol-5-yl)-5,6-dihydro-[1,2,4]triazolo[4,3-a]pyrazin-7(8H)-yl)methanone]

Ki: < 0.5 µM
Compound: O=C(c1ccc(-c2cccs2)cc1)N1CCn2c(nnc2-c2csc(N3CCCC3)n2)C1 [Compound 248, (3-(2-(pyrrolidin-1-yl)thiazol-4-yl)-5,6-dihydro-[1,2,4]triazolo[4,3-a]pyrazin-7(8H)-yl)(4-(thiophen-2-yl)phenyl)methanone]

Ki: 1 to 5 µM
Compound: O=C(c1ccc(-c2ccccc2)cc1)N1CCn2c(nnc2-c2csc(Cn3cnc(Cl)c3Cl)n2)C1 [Compound 186, [1,1′-biphenyl]-4-yl(3-(2-((4,5-dichloro-1H-imidazol-1-yl)methyl)thiazol-4-yl)-5,6-dihydro-[1,2,4]triazolo[4,3-a]pyrazin-7(8H)-yl)methanone]

Ki: < 0.5 µM
Compound: C[C@@H]1c2nnc(-c3csc(N4CCOCC4)n3)n2CCN1C(=O)c1ccc(-c2ccccc2)cc1 [Compound 118, (R)-[1,1′-biphenyl]-4-yl(8-methyl-3-(2-morpholinothiazol-4-yl)-5,6-dihydro-[1,2,4]triazolo[4,3-a]pyrazin-7(8H)-yl)methanone]

Ki: < 0.5 µM
Compound: O=C(c1ccc(F)cc1)N1CCn2c(nnc2-c2csc(N3CCN(c4ccccc4)CC3)n2)C1 [Compound 34, (4-fluorophenyl)(3-(2-(4-phenylpiperazin-1-yl)thiazol-4-yl)-5,6-dihydro-[1,2,4]triazolo[4,3-a]pyrazin-7(8H)-yl)methanone]

Ki: < 0.5 µM
Compound: CC1c2nnc(-c3csc(-c4ccccc4)n3)n2CCN1C(=O)c1ccc(-c2cccs2)cc1 (centres unmarked) [Compound 62, (8-methyl-3-(2-phenylthiazol-4-yl)-5,6-dihydro-[1,2,4]triazolo[4,3-a]pyrazin-7(8H)-yl)(4-(thiophen-2-yl)phenyl)methanone]

Ki: 1 to 5 µM
Compound: CC(C)Cc1nc(-c2nnc3n2CCN(C(=O)c2ccc(F)cc2)C3)cs1 [Compound 259, (4-fluorophenyl)(3-(2-isobutylthiazol-4-yl)-5,6-dihydro-[1,2,4]triazolo[4,3-a]pyrazin-7(8H)-yl)methanone]
